Laboratory results from ChEMBL document CHEMBL1145856, “Synthesis and in vitro characterization of 1-(4-aminofurazan-3-yl)-5-dialkylaminomethyl-1H-[1,2,3]triazole-4-carboxylic acid derivatives. A new class of selective GSK-3 inhibitors” (J Med Chem, 2003).

Key:
[1] = molecular target: T1, Glycogen synthase kinase-3 beta (Homo sapiens, UniProt P49841); assay: Inhibition of human Glycogen synthase kinase-3 beta (GSK3-beta) at 100 uM ATP
[2] = molecular target: T1, Glycogen synthase kinase-3 beta
Description: Inhibitory activity against human glycogen synthase kinase-3beta (GSK3-beta) at 100 uM ATP

[3] = molecular target: T1, Glycogen synthase kinase-3 beta; assay type: functional, cell-based, Cricetulus griseus, CHO-hIR
[4] = molecular target: Cyclin-dependent kinase 2/cyclin A (Homo sapiens, UniProt P24941); assay: Inhibition of Cyclin-dependent kinase 2-cyclin A; assay type: protein-complex assay
[5] = molecular target: T1, Glycogen synthase kinase-3 beta; assay type: functional, cell-based, Cricetulus griseus, CHO
Description: Stimulation of glycogen synthase in CHO cells expressing human insulin receptor

T1 sequence (P49841 whole entry): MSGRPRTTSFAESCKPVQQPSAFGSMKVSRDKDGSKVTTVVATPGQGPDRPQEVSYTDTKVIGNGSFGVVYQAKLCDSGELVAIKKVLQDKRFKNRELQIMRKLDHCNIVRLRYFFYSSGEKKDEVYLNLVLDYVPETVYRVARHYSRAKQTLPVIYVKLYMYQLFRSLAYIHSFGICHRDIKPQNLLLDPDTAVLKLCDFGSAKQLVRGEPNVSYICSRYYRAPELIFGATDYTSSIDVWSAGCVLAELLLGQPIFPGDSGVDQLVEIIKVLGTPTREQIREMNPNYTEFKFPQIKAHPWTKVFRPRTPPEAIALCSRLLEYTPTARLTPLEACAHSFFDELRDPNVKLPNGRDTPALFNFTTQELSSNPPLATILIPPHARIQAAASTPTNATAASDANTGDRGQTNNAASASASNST

SMILES | IC50 [2] | further results
CCN(CC)Cc1c(C(=O)NN)nnn1-c1nonc1N | – | IC50 [1]: 17 µM
Nc1nonc1-n1nnc(C(=O)NCc2ccncc2)c1CN1CCCCC1 | 9.3 µM | –
CN(C)Cc1c(-c2n[nH]c(-c3ccncc3)n2)nnn1-c1nonc1N | 6.92 µM | –
Nc1nonc1-n1nnc(C(=O)NCCc2ccncc2)c1CN1CCCC1 | 2.1 µM | –
Nc1nonc1-n1nnc(C(=O)NCCc2ccncc2)c1CN1CCCCC1 | 1.16 µM | EC50 [3]: 57.5 µM; IC50 [4]: 119 µM; EC50 [5]: 19.1 µM
Nc1nonc1-n1nnc(C(=O)N/N=C/c2ccncc2)c1CN1CCCC1 | 0.1 µM | –
CN(CCc1ccncc1)C(=O)c1nnn(-c2nonc2N)c1CN1CCCCC1 | > 250 µM | –
CC(C)CNCc1c(C(=O)NCc2ccncc2)nnn1-c1nonc1N | > 250 µM | –
NNC(=O)c1nnn(-c2nonc2N)c1CN1CCCCC1 | 9.6 µM | –
CCN(CC)Cc1c(C(=O)N/N=C/c2ccncc2)nnn1-c1nonc1N | 0.41 µM | –
CCN(CC)Cc1c(C(=O)NCCc2ccncc2)nnn1-c1nonc1N | 11.7 µM | –
Nc1nonc1-n1nnc(-c2n[nH]c(-c3ccncc3)n2)c1CN1CCCC1 | 0.24 µM | –
Nc1nonc1-n1nnc(C(=O)N/N=C/c2ccncc2)c1CN1CCCCC1 | 0.1 µM | EC50 [3]: 4.54 µM; IC50 [4]: 96 µM; EC50 [5]: 2.85 µM
Nc1nonc1-n1nnc(-c2nnc(-c3ccncc3)[nH]2)c1CN1CCCCC1 | 0.28 µM | EC50 [3]: 11.1 µM; IC50 [4]: > 250 µM; EC50 [5]: 1.85 µM
